Reference: ChEMBL document CHEMBL3046776, “Antibacterial and antifungal screening of newly synthesized benzimidazole-clubbed chalcone derivatives” (2013)

Legend:
Type in all cases: functional
Aspergillus niger = test: Antifungal activity against Aspergillus niger ATCC 1015 assessed as growth inhibition by broth microdilution method
Pseudomonas aeruginosa = test: Antibacterial activity against Pseudomonas aeruginosa ATCC 27853 assessed as growth inhibition by broth microdilution method
Escherichia coli = test: Antibacterial activity against Escherichia coli ATCC 25922 assessed as growth inhibition by broth microdilution method
Candida albicans = test: Antifungal activity against Candida albicans ATCC 10231 assessed as growth inhibition by broth microdilution method
Staphylococcus aureus = test: Antibacterial activity against Staphylococcus aureus ATCC 25923 assessed as growth inhibition by broth microdilution method
Enterococcus faecalis = test: Antibacterial activity against Enterococcus faecalis ATCC 29212 assessed as growth inhibition by broth microdilution method

Structure (SMILES) | MIC (Aspergillus niger) [µg/mL] | MIC (Pseudomonas aeruginosa) [µg/mL] | MIC (Escherichia coli) [µg/mL] | MIC (Candida albicans) [µg/mL] | MIC (Staphylococcus aureus) [µg/mL] | MIC (Enterococcus faecalis) [µg/mL]
COc1ccc(/C=C/C(=O)c2ccc(NC(=O)CSc3nc4ccccc4[nH]3)cc2)cc1OC | 62.5 | 125 | 31.2 | 125 | 62.5 | 250
O=C(CSc1nc2ccccc2[nH]1)Nc1ccc(C(=O)/C=C/c2ccc([N+](=O)[O-])cc2)cc1 | 62.5 | 125 | 62.5 | 125 | 62.5 | 125
CN(C)c1ccc(/C=C/C(=O)c2ccc(NC(=O)CSc3nc4ccccc4[nH]3)cc2)cc1 | 125 | 125 | 31.2 | 125 | 125 | 125
O=C(CSc1nc2ccccc2[nH]1)Nc1ccc(C(=O)/C=C/c2ccc(Br)cc2)cc1 | 125 | 125 | 31.2 | 250 | 125 | 125
O=C(CSc1nc2ccccc2[nH]1)Nc1ccc(C(=O)/C=C/c2cccc(Cl)c2)cc1 | 125 | 125 | 62.5 | 250 | 31.2 | 125
O=C(CSc1nc2ccccc2[nH]1)Nc1ccc(C(=O)/C=C/c2cccc(Br)c2)cc1 | 250 | 125 | 62.5 | 250 | 31.2 | 250
COc1cc(/C=C/C(=O)c2ccc(NC(=O)CSc3nc4ccccc4[nH]3)cc2)cc(OC)c1OC | 250 | 125 | 31.2 | 125 | 31.2 | 250
O=C(CSc1nc2ccccc2[nH]1)Nc1ccc(C(=O)/C=C/c2ccccc2[N+](=O)[O-])cc1 | 250 | 250 | 31.2 | 250 | 31.2 | 250
COc1ccc(OC)c(/C=C/C(=O)c2ccc(NC(=O)CSc3nc4ccccc4[nH]3)cc2)c1 | 125 | 125 | 31.2 | 250 | 31.2 | 125
COc1cc(/C=C/C(=O)c2ccc(NC(=O)CSc3nc4ccccc4[nH]3)cc2)ccc1O | 125 | 250 | 62.5 | 62.5 | 15.6 | 250
O=C(CSc1nc2ccccc2[nH]1)Nc1ccc(C(=O)/C=C/c2c(O)ccc3ccccc23)cc1 | 62.5 | 62.5 | 62.5 | 125 | 62.5 | 250
O=C(CSc1nc2ccccc2[nH]1)Nc1ccc(C(=O)/C=C/c2ccccc2O)cc1 | 125 | 31.2 | 31.2 | 62.5 | 62.5 | 125
COc1ccc(/C=C/C(=O)c2ccc(NC(=O)CSc3nc4ccccc4[nH]3)cc2)cc1 | 125 | 250 | 62.5 | 125 | 31.2 | 250
O=C(CSc1nc2ccccc2[nH]1)Nc1ccc(C(=O)/C=C/c2ccc(O)cc2)cc1 | 125 | 250 | 62.5 | 125 | 31.2 | 125
O=C(CSc1nc2ccccc2[nH]1)Nc1ccc(C(=O)/C=C/c2ccccc2)cc1 | 125 | 250 | 125 | 250 | 250 | 250
O=C(CSc1nc2ccccc2[nH]1)Nc1ccc(C(=O)/C=C/c2ccc(Cl)cc2)cc1 | 125 | 125 | 62.5 | 250 | 125 | 250
O=C(O)c1cn(C2CC2)c2cc(N3CCNCC3)c(F)cc2c1=O [CIPROFLOXACIN] |  | 125 | 125 |  | 62.5 | 125
OC(Cn1cncn1)(Cn1cncn1)c1ccc(F)cc1F [FLUCONAZOLE] | 62.5 |  |  | 125 |  | 
